From the NIST ThermoML archive (doi:10.1021/acs.jced.5b00988)
“And” between values parts separate entries of the source, which are not always exact repeats. Identical values can stand only once. ± gives the expanded uncertainty stated by the source. Values belong to the molecule of their own block, whether it stands above or below them.

Key:
[1] = wn = mass fraction of the nth substance listed; settings: 298.15 K, 102.5 kPa, Liquid; for viscosity: Concentric cylinders viscometry; for mass density: Vibrating tube method
[2] = Crystal; visual observation

viscosity ([1]; w1 = 0.2642): 1.5 ± 0.03 mPa·s and 1.7 ± 0.04 mPa·s
mass density ([1]; w1 = 0.2642): 1194 ± 2 kg/m3 and 1214 ± 2 kg/m3
Structure (SMILES): [Cl-].[Na+] [sodium chloride] + O

Structure (SMILES): O=[PH2][O-].[Na+] [sodium phosphinate] + O
viscosity ([1]; w1 = 0.5196): 17.6 ± 0.38 mPa·s
mass density ([1]; w1 = 0.5196): 1394 ± 3 kg/m3

Structure (SMILES): O=[PH2][O-].O=[PH2][O-].[Zn+2] [zinc(II) phosphinate]
Triple point temperature [2]: 446.15 ± 5 K

Structure (SMILES): O=[PH2][O-].O=[PH2][O-].[Zn+2] [zinc(II) phosphinate] + O
viscosity ([1]; w2 = 0.5196): 2.04 ± 0.04 mPa·s
mass density ([1]; w1 = 0.1861): 1157 ± 2 kg/m3
